Patent US7524861B2, “Process for the preparation of a hydrate of an anthranilic acid derivative” (priority 2002, dated 2009)

Assay: Dehydration/re-hydration study (weight change over desiccants, then 33-95% RH, KF water content)
Type: physicochemical
Conditions: for KF moisture result: dehydration/rehydration sample
Experimental: The hexahydrate produced in Example 1 was analysed as follows. Four desiccator cabinets were prepared to contain open dishes of the following saturated salt solutions, to achieve the following approximate relative humidities (RH).
Dehydration of samples was carried out by storing them over silica gel or over P2O5 at reduced pressure (65 mm Hg). All studies were performed at ambient laboratory temperature (15-22° C.).
During this study, samples were dispensed to pre-equilibrated weighing bottles as in the hygroscopicity study, and were then stored over silica gel without reduced pressure, then over […] under reduced pressure (65 mm Hg) to dehydrate the hydrate. Once a stable weight was achieved over P2O5, samples were re-hydrated by storing them at 33% RH to 95% RH, in parallel with the hygroscopicity study as described above.
Water contents were measured by coulometric KF (Karl Fischer) titration.

COc1cc2c(cc1OC)CN(CCc1ccc(NC(=O)c3cc(OC)c(OC)cc3NC(=O)c3cnc4ccccc4c3)cc1)CC2 [Example 1, Quinoline-3-carboxylic acid (2-{4-[2-(6,7-dimethoxy-3,4-dihydro-1H-isoquinolin-2-yl)-ethyl]-phenylcarbamoyl}-4,5-dimethoxy-phenyl)-amide]
Cumulative % change Dehydration/Rehydration (60% RH, cumulative time 1744.50 h): 0.19% | Cumulative % change Dehydration/Rehydration (60% RH, cumulative time 1746.50 h): 0.31% | Cumulative % change Dehydration/Rehydration (60% RH, cumulative time 1762.50 h): 0.30% | Cumulative % change Dehydration/Rehydration (60% RH, cumulative time 1835.75 h): 0.54% | Cumulative % change Dehydration/Rehydration (60% RH, cumulative time 1932.25 h): 0.64% | Cumulative % change Dehydration/Rehydration (60% RH, cumulative time 2101.50 h): 0.86% | Cumulative % change Dehydration/Rehydration (60% RH, cumulative time 2147.75 h): 0.62% | Cumulative % change Dehydration/Rehydration (60% RH, cumulative time 2273.75 h): 0.61% | Cumulative % change Dehydration/Rehydration (60% RH, cumulative time 2410.25 h): 0.51% | Cumulative % change Dehydration/Rehydration (75% RH, cumulative time 2417.25 h): 1.18% | Cumulative % change Dehydration/Rehydration (75% RH, cumulative time 2434.25 h): 1.21% | Cumulative % change Dehydration/Rehydration (75% RH, cumulative time 2441.25 h): 1.26% | Cumulative % change Dehydration/Rehydration (75% RH, cumulative time 2482.00 h): 1.23% | Cumulative % change Dehydration/Rehydration (75% RH, cumulative time 2577.75 h): 1.35% | Cumulative % change Dehydration/Rehydration (75% RH, cumulative time 2609.75 h): 1.38% | Cumulative % change Dehydration/Rehydration (75% RH, cumulative time 2681.25 h): 1.41% | Cumulative % change Dehydration/Rehydration (75% RH, cumulative time 2770.25 h): 1.36% | Cumulative % change Dehydration/Rehydration (75% RH, cumulative time 2817.75 h): 1.44% | Cumulative % change Dehydration/Rehydration (95% RH, cumulative time 2825.25 h): 2.28% | Cumulative % change Dehydration/Rehydration (95% RH, cumulative time 2841.75 h): 2.73% | Cumulative % change Dehydration/Rehydration (95% RH, cumulative time 2915.75 h): 3.06% | Cumulative % change Dehydration/Rehydration (95% RH, cumulative time 2937.75 h): 3.21% | Cumulative % change Dehydration/Rehydration (95% RH, cumulative time 2991.25 h): 3.25% | Cumulative % change Dehydration/Rehydration (95% RH, cumulative time 3082.25 h): 3.86% | Cumulative % change Dehydration/Rehydration (95% RH, cumulative time 3130.00 h): 4.12% | Cumulative % change Dehydration/Rehydration (95% RH, cumulative time 3182.25 h): 3.99% | Cumulative % change Dehydration/Rehydration (95% RH, cumulative time 3252.25 h): 4.19% | Cumulative % change Dehydration/Rehydration (95% RH, cumulative time 3350.25 h): 4.22% | Cumulative % change Dehydration/Rehydration (95% RH, cumulative time 3422.25 h): 4.35% | Cumulative % change Dehydration/Rehydration (95% RH, cumulative time 3636.25 h): 5.31% | Cumulative % change Dehydration/Rehydration (95% RH, cumulative time 4332.75 h): 5.58% | Cumulative % change Dehydration/Rehydration (P2O5 with vacuum, cumulative time 425.00 h): −10.85% | Cumulative % change Dehydration/Rehydration (P2O5 with vacuum, cumulative time 452.00 h): −11.00% | Cumulative % change Dehydration/Rehydration (P2O5 with vacuum, cumulative time 476.75 h): −11.19% | Cumulative % change Dehydration/Rehydration (P2O5 with vacuum, cumulative time 570.25 h): −11.43% | Cumulative % change Dehydration/Rehydration (P2O5 with vacuum, cumulative time 641.00 h): −11.35% | Cumulative % change Dehydration/Rehydration (P2O5 with vacuum, cumulative time 760.50 h): −11.51% | Cumulative % change Dehydration/Rehydration (P2O5 with vacuum, cumulative time 904.25 h): −11.46% | Cumulative % change Dehydration/Rehydration (P2O5 with vacuum, cumulative time 1071.00 h): −11.54% | Cumulative % change Dehydration/Rehydration (P2O5 with vacuum, cumulative time 1144.00 h): −11.48% | initial water content of the sample (before dehydration): 12.5% | notional water content after dehydration and re-hydration at 33% RH (corresponding to the net weight change): about 11.5% | net weight change after dehydration and re-hydration at 33% RH (dehydrated then re-hydrated at 33% RH): about −1% | final weight change on dehydration (dehydration over increasing desiccating conditions): −11.5% | KF moisture result (95% RH, cumulative time 4332.75 h (end)): (15.81) % w/w | KF moisture result (printed in first 33% RH row (1147.25 h), after dehydration over P2O5): (3.82) % w/w | KF moisture result (printed in first row (silica, no vacuum, 3.00 h), initial value before dehydration): (12.53) % w/w | Cumulative % change Dehydration/Rehydration (re-hydration at 33% RH, cumulative time 1147.25 h): −6.61% | Cumulative % change Dehydration/Rehydration (re-hydration at 33% RH, cumulative time 1150.75 h): −4.80% | Cumulative % change Dehydration/Rehydration (re-hydration at 33% RH, cumulative time 1168.00 h): −2.47% | Cumulative % change Dehydration/Rehydration (re-hydration at 33% RH, cumulative time 1240.75 h): −0.68% | Cumulative % change Dehydration/Rehydration (re-hydration at 33% RH, cumulative time 1268.50 h): −0.62% | Cumulative % change Dehydration/Rehydration (re-hydration at 33% RH, cumulative time 1312.50 h): −0.62% | Cumulative % change Dehydration/Rehydration (re-hydration at 33% RH, cumulative time 1431.25 h): −0.83% | Cumulative % change Dehydration/Rehydration (re-hydration at 33% RH, cumulative time 1502.25 h): −0.66% | Cumulative % change Dehydration/Rehydration (re-hydration at 33% RH, cumulative time 1672.50 h): −0.91%
